Experimental data from patent publication US20210267948A1, “TREATMENT OF CANCER” (CITY OF HOPE, priority 2017, published 2021).

Columns and labels:
TOV112D xenograft tumors = test: TOV112D mouse xenograft; format: in vivo; details: oral 200, 300 or 400 mg/kg, 7 days
Method: FIGS. 12A-12D depict the activity of COH29 in mouse xenografts. Cancer cells were implanted and allowed to grow at the subcutaneous site until the tumor was measurable. Subcutaneous xenograft growth curves for leukemic-(MOLT-4) mice treated for 12 days with oral COH29 in twice-daily dosing at 50 and 100 mg/kg (FIG. 12A) and for ovarian cancer bearing mice (TOV112D) treated for 7 days with 200, 300, or 400 mg/kg of oral COH29 (FIG. 12B) (shown are the average±SDs for 4 animals/group). FIG. 12C depicts the activity of RNR in MOLT-4 tumor xenografts from mice treated with vehicle (solutol-15) or 100 mg/kg of oral COH29 for 12 days. FIG. 12D depicts the effect of oral COH29 on intratumoral dTNP pools from MOLT-4 tumor xenografts.

[1] = First-in-human Phase I dose escalation safety study; format: in vivo
Description: First-in-human Phase I, single site, dose escalation, safety study.
Inclusion Criteria: (1) Male and female patients≥18 years of age with advanced, histologically confirmed solid tumors refractory to standard therapy or for which no standard therapy exists; (2) Patients must have measurable or evaluable disease; (3) Patients may be entered if they have received prior radiation therapy involving ≤30% of the bone marrow; (4) Patients may be enrolled with a history of treated brain metastases that are clinically stable for ≥4 weeks prior to enrollment; (5) ECOG Performance Status of ≤2; (6) Life expectancy of greater than 12 weeks as determined by treating clinician assessment; and (7) Adequate organ function per standard laboratory assessments.
Exclusion Criteria: (1) Patients must not have received prior chemotherapy or radiation for ≥4 weeks before study treatment initiation; (2) Patients unable or unwilling to swallow pill; (3) Active heart disease including myocardial infarction within previous 3 months, symptomatic coronary artery disease or heart block, or uncontrolled congestive heart failure; and (4) Women who are pregnant or actively breast-feeding.
Intrapatient dose escalation is allowed and design reverts to standard 3+3 if 2 moderate toxicities or 1 dose limiting toxicity (DLT) is encountered.
With respect to the DLT definition, Grade≥3 non-hematological toxicity will be considered dose limiting with the following clarifications: Grade 3 diarrhea will only be considered dose limiting if it is refractory to treatment and unable to be corrected to grade 1 or less within 24 hours. Bloody or grade 4 diarrhea will be dose limiting; Grade 3 nausea and vomiting will only be considered dose limiting if it is refractory to anti-emetic therapy and unable to be corrected to grade 1 or less within 24 hours; Grade 3 rise in creatinine, not corrected to grade 1 or less within 24 hours with IV fluids will be considered dose limiting. All grade 4 rises in creatinine will be dose limiting; and Grade 3 electrolyte toxicities unable to be corrected to grade 1 or baseline within 24 hours will be considered dose limiting. Tumor pain will not be considered dose limiting unless it is refractory to optimal treatment with analgesics. With respect to Grade 4, the following will be considered: Grade 4 thrombocytopenia; Grade 4 neutropenia lasting ≥5 days or febrile neutropenia; Grade 4 hemolysis; Treatment delay>2 weeks as a result of unresolved toxicity; and any degree of anemia, leucopenia in the absence of grade 4 neutropenia lasting ≥5 days, or lymphopenia will not be considered dose limiting.
Patients receive oral COH29 twice a day for 21 days of a 28-day cycle. Dose levels range from 200 to 2400 mg per day of administration. Dose escalation is pursued utilizing a Simon's accelerated titration design, which allows skipping of dose levels (dose doubling) during the accelerated dose-finding phase. PD assessment includes measurement of plasma CK18 levels to determine degree of cellular apoptosis, evaluation of dNTP pool levels in peripheral blood mononuclear cells (PBMCs) to evaluate RNR inhibition, as well as measurement of PAR expression in PBMCs to assess PARP inhibition. Quantitation of tumor RRM2 expression using dual-color immunohistochemistry is explored as a predictive biomarker of anti-tumor response to COH29.

[2] = tested on: MCF7 cells containing wild-type p53; test: DNA damage checkpoint Western blot, MCF-7; format: cell-based, human
Method: FIG. 6. COH29 treatment activates DNA damage checkpoint. The effect of COH29 treatment on DNA damage checkpoint proteins in human breast cancer cells expressing wt p53 (MCF-7) or defective for p53 (MCF-7p53−/−), and in triple-negative breast cancer cells (MDA-MB-468) assessed by Western Blot.
For subcellular fractionation, cells were trypsinized and washed with cold PBS solution twice. After centrifugation at 1,200 g for 5 min, cells were incubated in buffer (50 mM HEPES, pH 7.5, 150 mM NaCl, 1 mM EDTA) containing 0.2% NONIDET™ P-40 (NP-40), supplemented with protease inhibitors (5 μg/ml each of pepstatin, leupeptin, and aprotinin) and phosphatase inhibitors on ice for 5 min. Following centrifugation at 1,000 g for 5 min, the supernatant was collected (i.e., cytoplasmic fraction) and pellets were washed with the same buffer twice. The washed samples were extracted for 40 min on ice with fractionation buffer containing 0.5% NP-40 for nuclear fraction. All the samples were sonicated and clarified by centrifugation at 16,000 g for 15 min. Protein concentrations of all fractions were determined with Bio-Rad Protein Assay (Bio-Rad Laboratories, Hercules, Calif.). Immunoblotting was performed as described previously (21,22). […] The immunoblots were visualized on film with the West-Q chemi-luminescence kit (GenDEPOT, Barker, Tex.).

For `O=C(Nc1nc(-c2ccc(O)c(O)c2)c(-c2ccccc2)s1)c1ccc(O)c(O)c1` [COH29, N-(4-(3,4-dihydroxyphenyl)-5-phenylthiazol-2-yl)-3,4-dihydroxybenzamide], the xenograft tumor growth (TOV112D xenograft tumors) was “inhibited”, the “realtime PK monitoring vs AUC safety threshold” value ([1]; every patient, cycle 1) was “no exceeding of AUC safety threshold” and the “toxicity / DLT” value ([1]; first patient, dose level 1, 100 mg twice a day) was “without any DLT”. For the same compound, the “toxicity / DLT” value ([1]; fourth patient, dose level 7, 800 mg twice a day) was “moderate toxicity of grade 2 diarrhea”, the “toxicity / DLT” value ([1]; second patient, dose level 3, 200 mg twice a day) was “moderate toxicity of grade 2 skin rash” and the “toxicity / DLT” value ([1]; third patient, dose level 5, 400 mg twice a day) was “without any DLT”. The “DNA damage checkpoint (phosphorylation of ATM, CHK1, CHK2)” value [2] was “activated the DNA damage checkpoint” and the γ-H2AX level [2] was “increase”.
